Publication PMC6210068 (ACS Omega, 2018)
One block for each compound: values may come before it.

Legend:
KOR [1] = biological target: T1, KOR (Homo sapiens, UniProt P41145); assay: biochemical; assay type: binding; conditions: for Ki: KOR, [3H]U69593, mean ± SEM, N = 2–4
DOR [2] = biological target: T2, DOR (Homo sapiens, UniProt P41143); assay: Radioligand binding at DOR
rat kidney TSPO = rat kidney TSPO (Rattus norvegicus, UniProt P16257); assay: Radioligand binding at TSPO; conditions: for Ki: TSPO, rat TSPO, [3H]PK11195
rat kidney TSPO, sequence (P16257 whole entry): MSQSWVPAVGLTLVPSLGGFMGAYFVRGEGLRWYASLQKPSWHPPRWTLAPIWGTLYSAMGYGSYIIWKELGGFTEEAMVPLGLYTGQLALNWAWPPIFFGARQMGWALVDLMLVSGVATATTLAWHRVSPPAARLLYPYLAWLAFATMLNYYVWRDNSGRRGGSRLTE

MOR [3] = biological target: T3, MOR (Homo sapiens, UniProt P35372); assay: biochemical; assay type: binding
T3 sequence (P35372 whole entry): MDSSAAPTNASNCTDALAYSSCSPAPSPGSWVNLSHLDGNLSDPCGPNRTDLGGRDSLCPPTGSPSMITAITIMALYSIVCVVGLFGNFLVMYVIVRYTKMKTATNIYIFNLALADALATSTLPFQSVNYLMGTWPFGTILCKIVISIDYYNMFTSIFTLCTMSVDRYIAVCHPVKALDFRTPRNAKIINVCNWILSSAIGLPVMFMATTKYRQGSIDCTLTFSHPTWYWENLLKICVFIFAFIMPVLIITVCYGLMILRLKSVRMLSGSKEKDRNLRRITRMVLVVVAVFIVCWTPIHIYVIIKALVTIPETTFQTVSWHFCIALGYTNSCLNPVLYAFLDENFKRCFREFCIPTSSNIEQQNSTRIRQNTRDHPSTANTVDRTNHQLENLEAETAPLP

hA3AR [4] = biological target: T4, hA3AR (Homo sapiens, UniProt P0DMS8); assay: A3AR binding; conditions: for reduction of hA3AR binding affinity by 7-deaza modification: 28 vs 24, 54 vs 49, 55 vs 51
T4 sequence (P0DMS8 1-318): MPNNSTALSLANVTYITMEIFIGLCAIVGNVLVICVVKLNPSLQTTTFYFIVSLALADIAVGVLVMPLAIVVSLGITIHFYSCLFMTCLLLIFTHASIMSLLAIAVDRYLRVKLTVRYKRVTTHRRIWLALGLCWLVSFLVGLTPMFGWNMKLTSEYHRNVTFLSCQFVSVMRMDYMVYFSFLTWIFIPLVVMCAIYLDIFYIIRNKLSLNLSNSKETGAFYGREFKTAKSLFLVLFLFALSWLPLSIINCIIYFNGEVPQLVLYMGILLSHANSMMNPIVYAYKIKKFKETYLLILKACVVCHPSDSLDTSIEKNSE

5HT2B serotonin receptor = 5HT2B serotonin receptor (Homo sapiens, UniProt P41595); assay: PDSP off-target binding, 5HT2B
hA1AR = biological target: T5, hA1AR (Homo sapiens, UniProt P30542); assay: hA1AR binding
T5 sequence (P30542 1-326): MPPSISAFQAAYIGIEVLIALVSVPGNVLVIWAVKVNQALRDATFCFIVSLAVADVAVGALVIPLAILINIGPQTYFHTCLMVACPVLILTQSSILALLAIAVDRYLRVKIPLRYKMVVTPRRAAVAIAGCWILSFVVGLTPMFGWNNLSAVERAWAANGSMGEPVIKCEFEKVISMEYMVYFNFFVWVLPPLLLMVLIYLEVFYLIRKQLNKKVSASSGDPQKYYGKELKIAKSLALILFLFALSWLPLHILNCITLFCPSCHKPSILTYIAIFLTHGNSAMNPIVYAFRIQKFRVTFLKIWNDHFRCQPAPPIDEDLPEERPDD

muscarinic M1 receptor = muscarinic M1 receptor (Homo sapiens, UniProt P11229); assay: PDSP off-target binding, muscarinic M1
muscarinic M1 receptor, sequence (P11229 whole entry): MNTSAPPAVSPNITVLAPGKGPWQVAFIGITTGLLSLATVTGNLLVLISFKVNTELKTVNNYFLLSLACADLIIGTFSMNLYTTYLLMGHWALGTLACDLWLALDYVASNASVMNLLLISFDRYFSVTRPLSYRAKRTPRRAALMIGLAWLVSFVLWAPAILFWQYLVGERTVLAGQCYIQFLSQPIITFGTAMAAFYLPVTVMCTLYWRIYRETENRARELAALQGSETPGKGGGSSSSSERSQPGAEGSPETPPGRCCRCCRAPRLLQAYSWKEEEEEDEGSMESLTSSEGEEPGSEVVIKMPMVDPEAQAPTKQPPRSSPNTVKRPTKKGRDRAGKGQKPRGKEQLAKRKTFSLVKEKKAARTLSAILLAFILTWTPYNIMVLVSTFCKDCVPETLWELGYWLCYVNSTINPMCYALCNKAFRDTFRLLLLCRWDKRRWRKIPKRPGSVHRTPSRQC

5HT2A serotonin receptor = 5HT2A serotonin receptor (Homo sapiens, UniProt P28223); assay: PDSP off-target binding, 5HT2A
5HT2A serotonin receptor, sequence (P28223 whole entry): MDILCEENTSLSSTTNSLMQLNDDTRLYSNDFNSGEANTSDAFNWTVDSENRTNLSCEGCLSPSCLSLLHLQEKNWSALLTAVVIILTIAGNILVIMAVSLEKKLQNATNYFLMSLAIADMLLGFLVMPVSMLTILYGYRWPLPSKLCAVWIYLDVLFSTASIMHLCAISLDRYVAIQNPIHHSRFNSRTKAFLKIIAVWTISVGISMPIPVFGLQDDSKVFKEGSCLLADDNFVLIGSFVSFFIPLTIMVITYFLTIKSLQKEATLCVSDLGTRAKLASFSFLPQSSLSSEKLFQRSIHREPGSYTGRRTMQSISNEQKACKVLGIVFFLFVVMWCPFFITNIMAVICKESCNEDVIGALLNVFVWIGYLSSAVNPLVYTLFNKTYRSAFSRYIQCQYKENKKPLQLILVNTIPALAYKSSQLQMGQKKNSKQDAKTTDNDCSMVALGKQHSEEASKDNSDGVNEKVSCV

[5] = biological target: rat brain benzodiazepine receptor; assay: PDSP binding, rat brain benzodiazepine receptor; conditions: read-out: rat brain benzodiazepine receptor, Ki
rat σ2 receptor = biological target: T6, rat σ2 receptor (Rattus norvegicus, UniProt Q5U3Y7); assay: PDSP binding, σ2 receptor
T6 sequence (Q5U3Y7 1-176): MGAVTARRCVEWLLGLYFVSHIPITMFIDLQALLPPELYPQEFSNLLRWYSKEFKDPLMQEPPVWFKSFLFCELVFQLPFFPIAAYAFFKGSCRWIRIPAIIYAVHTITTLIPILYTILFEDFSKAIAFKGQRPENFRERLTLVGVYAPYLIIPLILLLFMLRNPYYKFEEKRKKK

hDAT [6] = biological target: T7, hDAT (Homo sapiens, UniProt Q01959); assay: hDAT binding modulation, [3H]mazindol 119
T7 sequence (Q01959 whole entry): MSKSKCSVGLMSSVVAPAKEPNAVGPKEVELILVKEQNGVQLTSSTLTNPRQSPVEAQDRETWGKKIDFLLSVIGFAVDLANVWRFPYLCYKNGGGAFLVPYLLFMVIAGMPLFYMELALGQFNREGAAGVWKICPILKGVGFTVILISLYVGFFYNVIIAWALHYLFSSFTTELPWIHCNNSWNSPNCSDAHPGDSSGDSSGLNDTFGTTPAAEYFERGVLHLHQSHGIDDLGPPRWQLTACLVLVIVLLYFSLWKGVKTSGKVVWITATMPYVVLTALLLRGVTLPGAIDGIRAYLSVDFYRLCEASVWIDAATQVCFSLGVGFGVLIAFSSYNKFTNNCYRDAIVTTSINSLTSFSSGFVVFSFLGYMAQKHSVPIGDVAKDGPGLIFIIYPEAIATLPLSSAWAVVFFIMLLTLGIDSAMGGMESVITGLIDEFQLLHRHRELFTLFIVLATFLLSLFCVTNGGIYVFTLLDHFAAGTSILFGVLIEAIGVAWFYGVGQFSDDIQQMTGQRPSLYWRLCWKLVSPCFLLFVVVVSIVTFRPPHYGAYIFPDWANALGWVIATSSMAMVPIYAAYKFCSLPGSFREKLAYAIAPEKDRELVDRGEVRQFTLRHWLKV

CYP1A2 = CYP1A2 (Homo sapiens, UniProt P05177); assay: Cytochrome P450 inhibition in human microsomes, 1A2; assay type: in vitro ADME; conditions: CYP450 1A2 IC50, human microsomes
hDAT [7] = biological target: T7, hDAT; assay: [3H]dopamine uptake inhibition at hDAT; assay type: cell-based
hSERT = hSERT (Homo sapiens, UniProt P31645); assay: hSERT binding and serotonin uptake
hDAT [8] = biological target: T7, hDAT; assay: Radioligand binding at DAT; conditions: for DAT, inhibition, % of control at 10 μM: [3H]WIN35428, negative = enhanced radioligand binding
hNET [9] = biological target: T8, hNET (Homo sapiens, UniProt P23975); assay: hNET binding, [125I]118
T8 sequence (P23975 whole entry): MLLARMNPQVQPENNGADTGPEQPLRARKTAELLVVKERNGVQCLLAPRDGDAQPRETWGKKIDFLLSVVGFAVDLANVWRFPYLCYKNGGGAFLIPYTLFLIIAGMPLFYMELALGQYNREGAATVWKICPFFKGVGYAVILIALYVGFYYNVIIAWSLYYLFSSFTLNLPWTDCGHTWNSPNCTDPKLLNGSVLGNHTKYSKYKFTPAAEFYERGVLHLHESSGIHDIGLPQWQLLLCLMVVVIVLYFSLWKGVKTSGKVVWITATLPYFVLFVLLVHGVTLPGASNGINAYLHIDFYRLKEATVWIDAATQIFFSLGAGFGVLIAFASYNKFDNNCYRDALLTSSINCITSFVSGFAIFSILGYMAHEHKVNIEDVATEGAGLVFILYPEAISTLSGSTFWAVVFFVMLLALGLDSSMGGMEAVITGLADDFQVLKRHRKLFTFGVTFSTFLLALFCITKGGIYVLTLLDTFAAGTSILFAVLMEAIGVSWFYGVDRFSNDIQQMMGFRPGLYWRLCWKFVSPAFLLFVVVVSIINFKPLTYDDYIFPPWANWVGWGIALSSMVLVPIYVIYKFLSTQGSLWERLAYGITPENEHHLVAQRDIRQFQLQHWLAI

MOR [10] = biological target: T3, MOR; assay: β-arrestin-recruitment TANGO assay at MOR; assay type: cell-based; conditions: 10 μM
KOR [11] = biological target: T1, KOR; assay: β-arrestin-recruitment TANGO assay at KOR; assay type: cell-based; conditions: 10 μM; vs naloxone 121 = 100% inhibition; agonist 109 (3 nM)
CYP2C9 = CYP2C9 (Homo sapiens, UniProt P11712); assay: Cytochrome P450 inhibition in human microsomes, 2C9; assay type: in vitro ADME; conditions: CYP450 2C9 IC50, human microsomes
CYP2C9, sequence (P11712 whole entry): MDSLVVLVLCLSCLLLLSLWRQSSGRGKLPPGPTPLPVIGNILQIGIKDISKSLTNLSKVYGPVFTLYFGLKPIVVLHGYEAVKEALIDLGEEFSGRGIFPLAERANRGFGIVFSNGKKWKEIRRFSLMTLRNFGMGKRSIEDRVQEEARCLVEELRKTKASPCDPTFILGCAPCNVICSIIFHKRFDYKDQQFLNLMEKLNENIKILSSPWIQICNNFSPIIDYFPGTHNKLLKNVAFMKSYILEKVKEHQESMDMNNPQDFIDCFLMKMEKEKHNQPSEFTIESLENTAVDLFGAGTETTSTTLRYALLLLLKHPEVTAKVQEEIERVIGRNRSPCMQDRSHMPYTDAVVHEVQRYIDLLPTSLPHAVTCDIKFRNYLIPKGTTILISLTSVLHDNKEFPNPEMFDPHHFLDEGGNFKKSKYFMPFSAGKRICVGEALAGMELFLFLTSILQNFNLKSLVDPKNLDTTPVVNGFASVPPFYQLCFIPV

CYP2D6 = CYP2D6 (Homo sapiens, UniProt P10635); assay: Cytochrome P450 inhibition in human microsomes, 2D6; assay type: in vitro ADME; conditions: CYP450 2D6 IC50, human microsomes
CYP2C19 = CYP2C19 (Homo sapiens, UniProt P33261); assay: Cytochrome P450 inhibition in human microsomes, 2C19; assay type: in vitro ADME; conditions: CYP450 2C19 IC50, human microsomes
mA1AR = biological target: T9, mA1AR (Mus musculus, UniProt Q60612); assay: mA1AR binding; conditions: read-out: mA1AR binding, % inhibition at 10 μM
T9 sequence (Q60612 1-326): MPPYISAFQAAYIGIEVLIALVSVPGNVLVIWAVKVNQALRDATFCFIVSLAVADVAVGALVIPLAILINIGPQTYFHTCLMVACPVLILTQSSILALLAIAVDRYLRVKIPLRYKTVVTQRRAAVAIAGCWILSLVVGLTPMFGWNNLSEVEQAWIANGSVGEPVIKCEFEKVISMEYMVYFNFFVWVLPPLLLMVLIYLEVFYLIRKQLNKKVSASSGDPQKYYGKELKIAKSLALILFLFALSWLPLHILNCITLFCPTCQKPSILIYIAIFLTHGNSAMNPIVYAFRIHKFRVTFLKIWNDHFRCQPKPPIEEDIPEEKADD

mA2AAR = mA2AAR (Mus musculus, UniProt Q60613); assay: mA2AAR binding; conditions: read-out: mA2AAR binding, % inhibition at 10 μM
mA2AAR, sequence (Q60613 whole entry): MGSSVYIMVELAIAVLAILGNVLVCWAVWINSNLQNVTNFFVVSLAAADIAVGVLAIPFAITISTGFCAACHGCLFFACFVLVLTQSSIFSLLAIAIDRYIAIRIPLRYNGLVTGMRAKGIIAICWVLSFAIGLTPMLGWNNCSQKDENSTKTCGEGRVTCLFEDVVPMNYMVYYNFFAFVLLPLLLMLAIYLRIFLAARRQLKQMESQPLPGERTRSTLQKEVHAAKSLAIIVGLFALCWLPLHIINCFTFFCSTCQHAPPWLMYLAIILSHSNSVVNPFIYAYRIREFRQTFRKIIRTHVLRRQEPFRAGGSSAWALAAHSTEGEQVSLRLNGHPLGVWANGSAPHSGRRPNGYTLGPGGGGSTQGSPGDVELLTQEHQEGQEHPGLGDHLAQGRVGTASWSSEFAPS

KOR [12] = biological target: T1, KOR; assay type: cell-based; conditions: antagonism of 1 μM U69593 98
DOR [13] = biological target: T2, DOR; assay: β-arrestin-recruitment TANGO assay at DOR; assay type: cell-based; conditions: 10 μM
CYP3A4 = CYP3A4 (Homo sapiens, UniProt P08684); assay: Cytochrome P450 inhibition in human microsomes, 3A4; assay type: in vitro ADME; conditions: CYP450 3A4 IC50, human microsomes
Human plasma stability = assay type: in vitro ADME; conditions: after 2 h
[14] = Pharmacokinetics after intravenous and oral administration; assay type: in vivo, male Sprague Dawley rats
CACO-2 cells = assay: CACO-2 cell permeability; assay type: in vitro ADME; conditions: human, Caco-2, 120 min, 10 µM, pH 7.4
CACO-2 cell permeability = assay type: in vitro ADME; conditions: human, Caco-2, pH 7.4
hNOP = hNOP (Homo sapiens, UniProt P41146); assay: Radioligand binding at NOP
hA3AR [15] = biological target: T4, hA3AR; assay: hA3AR-mediated inhibition of cAMP formation; assay type: cell-based; conditions: read-out: maximal efficacy, hA3AR-mediated inhibition of cAMP formation
hERG = hERG (Homo sapiens, UniProt Q12809); assay: hERG inhibition, fluorescence polarization assay; assay type: binding
β3 adrenergic receptor = β3 adrenergic receptor (Homo sapiens, UniProt P13945); assay: PDSP off-target binding, β3 adrenergic
β3 adrenergic receptor, sequence (P13945 whole entry): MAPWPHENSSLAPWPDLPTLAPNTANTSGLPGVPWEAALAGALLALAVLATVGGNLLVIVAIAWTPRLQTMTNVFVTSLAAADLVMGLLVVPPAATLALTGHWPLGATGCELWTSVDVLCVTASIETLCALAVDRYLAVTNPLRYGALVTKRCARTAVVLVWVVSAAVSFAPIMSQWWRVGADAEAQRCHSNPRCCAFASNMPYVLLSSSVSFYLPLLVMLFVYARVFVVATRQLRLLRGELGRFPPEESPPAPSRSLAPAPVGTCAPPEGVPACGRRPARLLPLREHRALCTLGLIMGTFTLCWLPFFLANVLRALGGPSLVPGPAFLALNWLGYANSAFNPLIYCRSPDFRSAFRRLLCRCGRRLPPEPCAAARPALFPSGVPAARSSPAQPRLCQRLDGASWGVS

hDAT [16] = biological target: T7, hDAT; conditions: read-out: Ki, inhibition of binding of [3H]103 at hDAT; cited from earlier work
[17] = biological target: human 5HT1A serotonin receptor (Homo sapiens, UniProt P08908); assay: PDSP off-target binding, 5HT1A
hNET [18] = biological target: T8, hNET; conditions: read-out: Ki, inhibition of binding of [3H]104 at NET; cited from earlier work
[19] = male, Sprague-Dawley, rat, plasma, po

T1 sequence (P41145 whole entry): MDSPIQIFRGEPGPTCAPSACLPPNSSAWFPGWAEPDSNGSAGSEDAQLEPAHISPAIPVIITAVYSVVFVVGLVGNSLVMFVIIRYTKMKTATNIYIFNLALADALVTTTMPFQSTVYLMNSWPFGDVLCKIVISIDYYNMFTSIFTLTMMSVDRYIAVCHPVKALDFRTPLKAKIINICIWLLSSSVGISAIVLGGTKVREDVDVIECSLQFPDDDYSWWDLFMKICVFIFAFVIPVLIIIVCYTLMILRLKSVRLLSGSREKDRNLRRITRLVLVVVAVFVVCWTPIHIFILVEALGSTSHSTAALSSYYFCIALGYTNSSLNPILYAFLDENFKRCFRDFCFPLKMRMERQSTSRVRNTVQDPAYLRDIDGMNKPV
T2 sequence (P41143 whole entry): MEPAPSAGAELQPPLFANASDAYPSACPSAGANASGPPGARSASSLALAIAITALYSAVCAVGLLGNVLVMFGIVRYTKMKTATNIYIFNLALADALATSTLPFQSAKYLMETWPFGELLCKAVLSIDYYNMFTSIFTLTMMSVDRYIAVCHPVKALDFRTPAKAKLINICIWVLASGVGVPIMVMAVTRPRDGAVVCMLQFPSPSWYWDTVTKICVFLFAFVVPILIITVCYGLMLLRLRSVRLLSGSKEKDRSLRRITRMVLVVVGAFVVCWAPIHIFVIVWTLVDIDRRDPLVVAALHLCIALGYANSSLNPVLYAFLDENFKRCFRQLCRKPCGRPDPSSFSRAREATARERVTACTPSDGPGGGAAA

- Ki (KOR [1]): 1370 ± 180 nM
- Ki (DOR [2]): 3660 ± 1330 nM
- Ki (rat kidney TSPO): 2120 ± 230 nM
- Ki (MOR [3]): 4020 ± 890 nM
- Ki (hA3AR [4]): 217 ± 65 nM
- reduction of hA3AR binding affinity by 7-deaza modification (hA3AR [4]): 11 fold
- Ki (5HT2B serotonin receptor): 3060 ± 170 nM
- Ki (hA1AR): 1300 nM
- Ki (muscarinic M1 receptor): 6970 nM
SMILES: O[C@@H]1[C@H](O)[C@@H]2C[C@@H]2[C@H]1n1ccc2c(NCCc3ccccc3)nc(C#Cc3ccccc3)nc21 [compound 55, (1R,2R,3S,4R,5S)-4-(4-(Phenethylamino)-2-(phenylethynyl)-7H-pyrrolo[2,3-d]pyrimidin-7-yl)bicyclo[3.1.0]hexane-2,3-diol]

- Ki (5HT2A serotonin receptor): 4340 ± 1740 nM
- Ki (KOR [1]): 3020 ± 90 nM
- Ki (DOR [2]): > 10000 nM
- Ki [5]: 118 nM
- Ki (MOR [3]): > 10000 nM
- Ki (hA3AR [4]): 2440 ± 430 nM
- Ki (rat σ2 receptor): 6920 nM
SMILES: O[C@@H]1[C@H](O)[C@@H]2C[C@@H]2[C@H]1n1ccc2c(NC(C3CC3)C3CC3)nc(C#Cc3ccc(Br)s3)nc21 [compound 57, (1R,2R,3S,4R,5S)-4-(2-((5-Bromothiophen-2-yl)ethynyl)-4-((dicyclopropylmethyl)amino)-7H-pyrrolo[2,3-d]pyrimidin-7-yl)bicyclo[3.1.0]hexane-2,3-diol]

- EC50 (hDAT [6]): 2160 ± 550 nM
- hDAT [3H]119 binding, % control binding (maximal) (hDAT [6]): 267 ± 17%
- IC50 (CYP1A2): ≥ 10000 nM
- IC50 (hDAT [7]): > 9800 nM
- hSERT binding enhancement / serotonin uptake inhibition potency (hSERT): > 10000 nM
- ligand efficiency (KOR [1]; KOR binding): 0.25
- Ki (KOR [1]): 42 ± 1 nM
- preference for KOR in comparison to DOR (KOR [1]; ratio of Ki): 19 fold
- preference for KOR in comparison to MOR (KOR [1]; ratio of Ki): 15 fold
- preference for KOR in comparison to TSPO (KOR [1]; ratio of Ki): ~20 fold
- EC50 (hDAT [8]): > 1000 nM
- DAT, inhibition, % of control at 10 μM (hDAT [8]): –172 ± 57 (3) %
- Ki (DOR [2]): 786 ± 210 nM
- Ki (rat kidney TSPO): 869 ± 160 nM
- EC50 (hNET [9]): > 10000 nM
- Ki (MOR [3]): 637 ± 367 nM
- MOR Antag (%) (MOR [10]; vs naloxone 121 = 100% inhibition, agonist 99 (300 nM)): 96.4%
- MOR Ag (%) (MOR [10]; vs standard agonist = 100%): 0.4%
- KOR Antag (%) (KOR [11]): 99.6%
- IC50 (CYP2C9): ≥ 10000 nM
- Ki (hA3AR [4]): 448 ± 13 nM
- reduction of hA3AR binding affinity by 7-deaza modification (hA3AR [4]): 31 fold
- IC50 (CYP2D6): ≥ 10000 nM
- IC50 (CYP2C19): ≥ 10000 nM
- inhibition at 10 µM (mA1AR): 32%
- inhibition at 10 µM (mA2AAR): 10%
- βarrestin2 recruitment, Imax (% 120) (KOR [12]): 92 ± 1 % 120
- DOR Antag (%) (DOR [13]; vs naloxone 121 = 100% inhibition): 85.4%
- DOR Ag (%) (DOR [13]; vs standard agonist = 100%): –0.6%
- IC50 (CYP3A4): ≥ 10000 nM
- stability in human plasma, remaining (Human plasma stability): 98%
- MRT [14, 19]: 2.3 to 2.8 h
- half-life [14, 19]: 1.6 to 2.2 h
- oral bioavailability F ([14]; p.o. 1 mg/kg, 1 mg/kg): 58%
- oral bioavailability F ([14]; p.o. 10 mg/kg, 10 mg/kg): 60%
- Efflux Ratio (CACO-2 cells): 15.6
- Papp A→B at 120 min, 10 µM (CACO-2 cell permeability): 1.42 ×10⁻⁶ cm/s
- Ki (hNOP): 3710 ± 780 nM
- Emax at 10 µM (hA3AR [15]): 0.59 ± 6.62%
SMILES: CCOC(=O)[C@@]12C[C@@H]1[C@@H](n1ccc3c(NC)nc(C#Cc4ccc(Cl)s4)nc31)[C@H](O)[C@@H]2O [compound 28, Ethyl(1S,2R,3S,4R,5S)-4-(2-((5-chlorothiophen-2-yl)ethynyl)-4-(methylamino)-7H-pyrrolo[2,3-d]pyrimidin-7-yl)-2,3-dihydroxybicyclo[3.1.0]hexane-1-carboxylate]
- IC50 (hERG): > 30000 nM

- Ki (β3 adrenergic receptor): 2500 nM
- Ki (rat σ2 receptor): 2510 nM
- Ki [17]: 6300 nM
SMILES: CNC(=O)[C@@]12C[C@@H]1[C@@H](n1cnc3c(NC4CC4c4ccccc4)nc(C#Cc4ccccc4)nc31)[C@H](O)[C@@H]2O (mixture of isomers) [compound 10]
- DOR, inhibition of radioligand binding at 10 μM (class) (DOR [2]; Table 1): ^e (30–50% inhibition of radioligand binding at 10 μM)
- TSPO, inhibition of radioligand binding at 10 μM (class) (rat kidney TSPO; Table 1): ^f (<30% inhibition of radioligand binding at 10 μM)
- Ki (hDAT [16]): 2310 nM

- DAT, inhibition, % of control at 10 μM (hDAT [8]): –154%
SMILES: CCNc1nc(C#Cc2ccccc2)nc2c1ncn2[C@H]1[C@H](O)[C@H](O)[C@@H]2C[C@@H]21 [compound 50]
- DOR, inhibition of radioligand binding at 10 μM (class) (DOR [2]; Table 4): ^g (<30% inhibition of radioligand binding at 10 μM)
- TSPO, inhibition of radioligand binding at 10 μM (class) (rat kidney TSPO; Table 4): ^f (30–50% inhibition of radioligand binding at 10 μM)
- Ki (hNET [18]): 8660 nM
